Reference: paper PMC4599313 (Journal of the American Chemical Society, 2015)

Tests used:
Format in all cases: biochemical
PglH = target: T1, PglH (Campylobacter jejuni, UniProt Q0P9C5); assay: normal-phase HPLC of [3H]-labelled glycan; conditions: [3H]-labelled Und-PP-diNAcBac-GalNAc-GalNAz acceptor
T1 sequence (Q0P9C5 1-359): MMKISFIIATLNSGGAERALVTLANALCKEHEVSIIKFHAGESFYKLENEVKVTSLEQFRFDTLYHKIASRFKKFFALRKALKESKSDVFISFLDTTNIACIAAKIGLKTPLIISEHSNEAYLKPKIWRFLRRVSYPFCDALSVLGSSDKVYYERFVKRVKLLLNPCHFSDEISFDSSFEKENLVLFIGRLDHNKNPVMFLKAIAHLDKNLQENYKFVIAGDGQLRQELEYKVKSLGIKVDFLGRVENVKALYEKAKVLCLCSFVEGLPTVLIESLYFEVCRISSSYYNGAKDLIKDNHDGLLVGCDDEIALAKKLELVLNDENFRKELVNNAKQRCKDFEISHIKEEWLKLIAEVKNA

PglJ = target: T2, PglJ (Campylobacter jejuni, UniProt Q0P9C7); assay: HPLC and scintillation counting of [3H]-labelled product; conditions: Und-PP-diNAcBac-[3H]-GalNAc acceptor; 100 uM UDP-sugar; PglJ 90 nM
T2 sequence (Q0P9C7 1-365): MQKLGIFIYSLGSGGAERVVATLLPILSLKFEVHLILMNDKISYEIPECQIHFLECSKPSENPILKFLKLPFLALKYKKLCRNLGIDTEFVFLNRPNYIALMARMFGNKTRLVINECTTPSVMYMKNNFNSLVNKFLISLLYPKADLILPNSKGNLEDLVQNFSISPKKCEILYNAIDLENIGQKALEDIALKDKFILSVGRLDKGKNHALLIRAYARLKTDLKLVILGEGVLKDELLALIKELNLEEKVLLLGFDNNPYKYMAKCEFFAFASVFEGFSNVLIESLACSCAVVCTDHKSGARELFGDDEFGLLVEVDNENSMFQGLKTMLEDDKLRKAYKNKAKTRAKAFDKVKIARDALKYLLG

PglC = target: T3, PglC (Campylobacter jejuni, UniProt Q0P9D0); assay: capillary electrophoresis of APTS-labelled monosaccharide; conditions: Und-P acceptor; 60 min; PglC 10 nM
T3 sequence (Q0P9D0 1-200): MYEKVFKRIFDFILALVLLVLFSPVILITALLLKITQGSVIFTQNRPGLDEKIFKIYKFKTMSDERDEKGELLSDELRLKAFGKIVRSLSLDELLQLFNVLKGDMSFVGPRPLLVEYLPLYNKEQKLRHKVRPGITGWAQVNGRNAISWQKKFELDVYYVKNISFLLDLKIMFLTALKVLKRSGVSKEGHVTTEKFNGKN

SMILES: CC(=O)N[C@H]1[C@@H](OP(=O)(O)OP(=O)(O)OC[C@H]2O[C@@H](n3ccc(=O)[nH]c3=O)[C@H](O)[C@@H]2O)O[C@H](CO)[C@H](O)[C@@H]1O [UDP-GalNAc]
- normal-phase HPLC of [3H]-labelled glycan (PglH): the tolerance of PglH was tested by incubating enzyme with UDP-GalNAc and UDP-GalNAz

SMILES: [N-]=[N+]=NCC(=O)N[C@H]1[C@@H](OP(=O)(O)OP(=O)(O)OC[C@H]2O[C@@H](n3ccc(=O)[nH]c3=O)[C@H](O)[C@@H]2O)O[C@H](CO)[C@H](O)[C@@H]1O [UDP-GalNAz]
- HPLC and scintillation counting of [3H]-labelled product (PglJ): PglJ efficiently incorporates an azido sugar into the Und-PP-trisaccharide

SMILES: CC(=O)N[C@H]1[C@@H](OP(=O)(O)OP(=O)(O)OC[C@H]2O[C@@H](n3ccc(=O)[nH]c3=O)[C@H](O)[C@@H]2O)O[C@H](C)[C@@H](NC(C)=O)[C@@H]1O [UDP-diNAcBac]
- capillary electrophoresis of APTS-labelled monosaccharide (PglC): the conversion was low for both, UDP-diNAcBac and UDP-2-NAc-4-NAzBac
